Data taken from patent US11685714B2, “Prodrugs of cytotoxic active agents having enzymatically cleavable groups” (BAYER PHARMA AKTIENGESELLSCHAFT, priority 2016, dated 2023).

Columns and labels:
[1] = biological target: T1, recombinant human legumain (Homo sapiens, UniProt Q99538); experiment: Legumain assay (cleavage of legumain-cleavable prodrugs); assay type: biochemical; conditions: within 24 h; rh legumain, pH 5.0
T1 construct: purchased R&D Systems 2199-CY
T1 sequence (Q99538 26-323 limits assumed): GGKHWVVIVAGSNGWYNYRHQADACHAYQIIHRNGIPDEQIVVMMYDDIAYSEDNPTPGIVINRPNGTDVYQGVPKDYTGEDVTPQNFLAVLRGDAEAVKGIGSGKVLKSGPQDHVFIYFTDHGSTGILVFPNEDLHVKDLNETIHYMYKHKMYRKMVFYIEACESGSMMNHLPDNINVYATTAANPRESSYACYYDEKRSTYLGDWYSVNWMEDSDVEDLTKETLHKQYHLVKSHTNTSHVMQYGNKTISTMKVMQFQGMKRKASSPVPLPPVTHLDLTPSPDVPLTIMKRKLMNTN
Experimental: The legumain assay was conducted with recombinant human enzyme. The rh legumain enzyme solution (catalogue #2199-CY, R&D Systems) was diluted to the desired concentration in 50 mM Na acetate buffer/100 mM NaCl, pH4.0 and preincubated at 37° C. for 2 h. rh legumain was then adjusted to a final concentration of 1 ng/μl in 50 mM MES buffer, 250 mM NaCl, pH 5.0. For every legumain-cleavable prodrug to be examined, a mixture was made up in a micro reaction vessel (0.5 ml, from Eppendorf). For this purpose, the substrate solution was adjusted to the desired concentration (double concentration) with 50 mM MES buffer, 250 mM NaCl, pH 5.0. For the kinetic measurement of the enzymatic reaction, 250 μl of the legumain solution were first initially charged and the enzyme reaction was started by adding 250 μl of the substrate solution (final concentration: single concentration). At different times, 50 μl samples were taken. This sample was admixed immediately with 100 μl of ice-cold methanol in order to stop the enzymatic reaction and then frozen at −20° C. The times selected for sampling were after 0.5 h, 1 h, 3 h and 24 h. The samples were then analysed by means of RP-HPLC analysis and by LC-MS analysis. The determination of the toxophor released enabled the determination of the half-life t½ of the enzymatic reaction (FIG. 1). […]

[2] = system: SK-HEP-1: human liver cell cancer line; experiment: MTT assay on SK-HEP-1; assay type: cell-based; conditions: SK-HEP1, 96 h, growth inhibition, 96 h incubation
Experimental: The analysis of the cytotoxic effects of the ADCs was carried out with various cell lines:
The cells were cultivated by the standard method as stated by the American Tissue Culture Collection (ATCC) or the Leibniz-lnstitut DSMZ-Deutsche Sammlung von Mikroorganismen und Zellkulturen GmbH (DSMZ) for the cell lines in question.
The cells were then incubated in an incubator at 37° C. and 5% carbon dioxide. […] To this end, the MTT reagent was incubated with the cells for 4 h, followed by lysis of the cells overnight by addition of the detergent. […] The measured data were used to calculate the ICo50 of the growth inhibition using the DRC (dose response curve). The proliferation of cells which were not treated with test substance but were otherwise identically treated was defined as the 100% figure.

[3] = Assay for determination of stability in rat liver lysosomes; assay type: in vitro ADME; conditions: over 24 h, 37° C.
Experimental: To determine the lysosomal stability of compounds A and B, lysosomal enzymes were isolated from rat liver cells. Compounds A and B were each added to this lysosomal extract in order to examine stability under lysosomal conditions. The proteolytic enzyme legumain is expressed only in a very small amount, if any, in rat liver lysosomes (Chen, J-M. et al 1997). To monitor the enzymatic activity of the lysosomal enzymes, a cathepsin-specific substrate was added.
First of all, a fresh rat liver was removed, weighed and immediately placed on ice in homogenization medium (0.25 M sucrose, 1 mM EDTA, 10 mM HEPES, pH7). The liver was comminuted and a change of medium was undertaken. The rat livers were homogenized with 4 times the amount of the rat liver weight at 750 rpm in a Potter (B. Braun). The homogenate was centrifuged at 1000 g for 10 min and the supernatant was filtered. In the next step, with the aid of an ultracentrifuge, the “light mitochondrial fraction” (LMF) was centrifuged out of the supernatant at 26 500 g over 20 min. […]
The sucrose was added from a 2.3 M stock solution of the particular percentage. […] To monitor the lysis, the protein content of the lysed lysosomal fraction was monitored with the aid of a BCA assays (Pierce BCA protein assay kit). […] For the RP-HPLC LCMS analysis, the samples were diluted with 300 μl of 10 mM ammonium acetate buffer (pH 6.8) and analysed.

[4] = Assay for determination of stability in rat plasma; assay type: in vitro ADME; conditions: 1 μg/ml, 37° C., 24 h
Experimental: To examine the stability of compounds A and B, 1 ml of rat plasma in a 1.5 ml Eppendorf tube in each case was equilibrated to 37° C. on an Eppendorf shaker. A stock solution (9 acetonitrile/1 DMSO) having a concentration of 100 μg/ml for compound A and compound B was prepared. 10 μl in each case of the stock solution were pipetted into 1 ml of equilibrated rat plasma, so as to give a concentration of 1 μg/ml.
The samples were kept at 450 rpm and 37° C. for 24 h. At each of the sampling times of 0, 0.25 h, 0.5 h, 1 h, 2 h, 4 h, 6 h and 24 h, 50 μl were taken and pipetted into 150 μl of methanol. Internal standard was included in the initial charge of methanol at a concentration of 0.05 μg/ml. After brief vortexing, 300 μl of 10 mM ammonium acetate buffer (pH 6.8) were added and centrifuged at 1881 g for 10 min. The samples were then analysed by means of RP-HPLC analysis and by LC-MS analysis.

CNC(=O)[C@H](CCN(C(=O)CO)[C@@H](c1cc(-c2cc(F)ccc2F)cn1Cc1ccccc1)C(C)(C)C)NC(=O)[C@H](CC(N)=O)NC(=O)[C@@H](C)NC(=O)[C@H](C)NC(=O)Cc1ccncc1 [Example R3r-LDL, N-(Pyridin-4-ylacetyl)-L-alanyl-D-alanyl-N^1-[(2S)-4-[{(1R)-1-[1-benzyl-4-(2,5-difluorophenyl)-1H-pyrrol-2-yl]-2,2-dimethylpropyl}(glycoloyl)amino]-1-(methylamino)-1-oxobutan-2-yl]-L-aspartamide]
extent of cleavage to the target compound by legumain [1]: about 20% | IC50 [2]: 0.283 µM | stability in rat liver lysosomal extract [3]: stable | stability in rat plasma [4]: stable over 24 h
